In PMC8520055 (Asian Journal of Pharmaceutical Sciences, 2021):
Where two headings read alike, the source gives them in different places.

Columns and labels:
Pharmacokinetics of ATV [1] = type: in vivo, rats; conditions: for Plasma concentrations vs control rats: ATV 10 mg/kg p.o., rats treated with RIF 30 mg/kg i.v.
Pharmacokinetics of ATV [2] = type: in vivo, rats; conditions: for metabolite plasma concentrations vs control: ATV 10 mg/kg p.o., at 7.5, 15, 30 and 60 min after KTZ 20 mg/kg i.v.
[3] = plasma 4β-HC; cited from earlier work
[4] = Hepatic disposition of ATV and GCDCA-S in rats with ANIT-induced liver injury; type: in vivo; conditions: ANIT-induced liver injury (Fig. S15)
[5] = Plasma and hepatic concentration of KTZ after a single oral dose; type: in vivo, rats; conditions: for concentration at 1 h: rat, plasma, po; for Hepatic concentration: 1 h
Cyp3a [6] = test: Endogenous Cyp3a markers; type: in vivo, rats
HepaRG cells [7] = test: Metabolism of ATV and cholesterol in HepaRG cells in presence of KTZ; type: cell-based, human; conditions: KTZ 10 µM, HepaRG cells (Fig. S14)
Oatps [8] = test: Hepatic uptake of ATV and GCDCA-S after 7 d oral RIF or KTZ; type: in vivo, rats; conditions: for hepatic uptake of ATV: inhibitor p.o. 7 d (RIF 30 mg/kg, KTZ 20 mg/kg), ATV 10 mg/kg p.o., 30 min
Liver function = type: in vivo, rats
Cyp3a [9] = test: Plasma GCDCA-S, cholesterol and 4β-HC after intravenous KTZ
[10] = Plasma concentration of RIF after a single oral dose; type: in vivo, rats; conditions: rat
Oatps [11] = test: Endogenous substrates of Oatps; type: in vivo, rats
HepaRG cells [12] = test: Uptake of ATV and GCDCA-S in HepaRG cells in presence of RIF; type: cell-based; conditions: Homo sapiens
Oatps [13] = test: Plasma GCDCA-S, cholesterol and 4β-HC after intravenous RIF; type: in vivo, rats
Oatps [14] = test: Reversibility of RIF inhibition of GCDCA-S uptake; type: in vivo, rats; conditions: RIF 30 mg/kg p.o. 7 d, then 7-d washout
Oatps [15] = conditions: read-out: IC50 for Oatps in vitro; cited from earlier work
[16] = cited from earlier work
[17] = KTZ single oral dose 20-80 mg/kg
[18] = RIF 30-120 mg/kg single oral dose
[19] = RIF 30-120 mg/kg single oral dose, 2 h

CC(C)c1c(C(=O)Nc2ccccc2O)c(-c2ccccc2)c(-c2ccc(F)cc2)n1CCC(O)CC(O)CC(=O)O (stereo not drawn) [2-OH ATV, 2‑hydroxy-atorvastatin]
Plasma concentrations vs control rats (Pharmacokinetics of ATV [1]): markedly higher
metabolite plasma concentrations vs control (Pharmacokinetics of ATV [2]): significantly decreased

CC(C)c1c(C(=O)Nc2ccc(O)cc2)c(-c2ccccc2)c(-c2ccc(F)cc2)n1CC[C@@H](O)C[C@@H](O)CC(=O)O [4-OH ATV, 4‑hydroxy-atorvastatin]
Plasma concentrations vs control rats (Pharmacokinetics of ATV [1]): markedly higher
metabolite plasma concentrations vs control (Pharmacokinetics of ATV [2]): significantly decreased

CC(C)CCC[C@@H](C)[C@H]1CC[C@H]2[C@@H]3CC=C4[C@@H](O)[C@@H](O)CC[C@]4(C)[C@H]3CC[C@]12C [4β-HC, 4β-hydroxycholesterol]
half-life [3]: ~17 days

S=C=Nc1cccc2ccccc12 [ANIT, α-naphthylisothiocyanate]
liver mRNA level of Oatp [4]: decreased

CC(=O)N1CCN(c2ccc(OCC3COC(Cn4ccnc4)(c4ccc(Cl)cc4Cl)O3)cc2)CC1 (stereo not drawn) [KTZ, ketoconazole]
KTZ level (plasma) (Pharmacokinetics of ATV [2]; after single i.v. KTZ 20 mg/kg, over 0-360 min (Fig. S10)): above 1.5 µM
concentration at 1 h ([5]; 20 mg/kg): 23.9 µM
concentration at 1 h ([5]; 40 mg/kg): 31.4 µM
concentration at 1 h ([5]; 80 mg/kg): 49.6 µM
Hepatic concentration ([5]; single oral dose 20 mg/kg): 87.1 µmol/kg tissue
Hepatic concentration ([5]; single oral dose 40 mg/kg): 119.2 µmol/kg tissue
Hepatic concentration ([5]; single oral dose 80 mg/kg): 160.6 µmol/kg tissue
blood concentration of 6β-HC (Cyp3a [6]; KTZ multiple-dose 7 d): increased
plasma concentrations of 4β-HC (Cyp3a [6]; KTZ repeated oral dose 7 d, 20-80 mg/kg): markedly elevated
hepatic 6β-HC levels (Cyp3a [6]; [17]): dose-dependently decreased
plasma 6β-HC levels (Cyp3a [6]; [17]): not been influenced
Hepatic 4β-HC levels (Cyp3a [6]; KTZ single oral dose 20-80 mg/kg (Fig. S5)): significantly increased
degradation ATV to 2-OH ATV and 4-OH ATV (HepaRG cells [7]): inhibited
formation of 4β-HC (HepaRG cells [7]): did not affect
hepatic uptake of ATV (Oatps [8]): minimally impacted
liver function (serum AST, ALT, ALP) (Liver function; KTZ 20, 40, 80 mg/kg single or multiple oral dose (Fig. S2)): not affect liver function
plasma levels of cholesterol and its metabolite 4β-HC (Cyp3a [9]; after intravenous KTZ 20 mg/kg): not affected
plasma concentrations of GCDCA-S (Cyp3a [9]; after intravenous KTZ 20 mg/kg (Fig. S9)): not changed

CO[C@H]1/C=C/O[C@@]2(C)Oc3c(C)c(O)c4c(O)c(c(/C=N/N5CCN(C)CC5)c(O)c4c3C2=O)NC(=O)/C(C)=C\C=C\[C@H](C)[C@H](O)[C@@H](C)[C@@H](O)[C@@H](C)[C@H](OC(C)=O)[C@@H]1C [RIF, rifampicin]
plasma RIF level (Pharmacokinetics of ATV [1]; after single i.v. RIF 30 mg/kg, over 0-360 min (Fig. S8)): above 5.5 µM
concentration at 2 h ([10]; 30 mg/kg): 11.6 µM
concentration at 2 h ([10]; 60 mg/kg): 22.4 µM
concentration at 2 h ([10]; 120 mg/kg): 26.5 µM
hepatic uptake of CP I/III (Oatps [11]; [18]): did not inhibit
plasma concentrations of CP I/III (Oatps [11]; [18]): did not affect
biosynthesis of GCDCA-S from GCDCA in the liver (Oatps [11]; RIF 30-120 mg/kg single oral dose (Fig. S3)): did not affect
hepatic uptake ratio of CA, GCA, GUDCA, TCDCA, TUDCA, THDCA, TLCA and GCDCA-S (Oatps [11]; [19]): decreased
plasma CA, CDCA, HDCA, GCA, GUDCA, TCDCA, TDCA, THDCA and GCDCA-S levels (Oatps [11]; [19]): dose-dependently increased
IC50 (HepaRG cells [12]; read-out: IC50 for uptake of ATV): 1000 nM
IC50 (HepaRG cells [12]; read-out: IC50 for uptake of GCDCA-S): 9800 nM
plasma concentrations of GCDCA-S (Oatps [13]; after intravenous RIF 30 mg/kg): significantly increased
plasma concentration of cholesterol and 4β-HC (Oatps [13]; after intravenous RIF 30 mg/kg (Fig. S7)): did not affect
hepatic uptake of GCDCA-S (Oatps [8]; RIF 30 mg/kg p.o. 7 d): decreased
plasma concentration of GCDCA-S (Oatps [8]; RIF 30 mg/kg p.o. 7 d): significantly increased
hepatic uptake of ATV (Oatps [8]): greatly attenuated
effect on the hepatic uptake of GCDCA-S after washout (Oatps [14]): fully reversed
plasma GCDCA-S level vs vehicle-treated rats after washout (Oatps [14]): not significant different
liver function (serum AST, ALT, ALP) (Liver function; RIF 30, 60, 120 mg/kg single oral dose (Fig. S2)): not affect liver function
IC50 (Oatps [15]): 140 to 1700 nM
plasma unbound fraction [16]: 0.265
